Assay results as given in article PMC10758095, “Selectively targeting BCL6 using a small molecule inhibitor is a potential therapeutic strategy for ovarian cancer” (International Journal of Biological Sciences, 2024).

Target: T1, BCL6 (Homo sapiens, UniProt P41182)
T1 construct: BTB domain
Test: SPR (also HTRF BCL6-BTB/SMRT disruption)
Assay type: binding

Kd: 2240 nM
SMILES: C[C@@H]1CN(c2ncc(F)c(Nc3ccc4oc(=O)ccc4c3)n2)C[C@H](C)N1 [WK369]
